Laboratory results as given in patent US20130184302A1, “METHODS FOR TREATING IRRITABLE BOWEL SYNDROME (IBS) AND INFECTIONS” (priority 2011, published 2013).

Experiments:
[1] = system: C. difficile infection (CDI); assay: CDI trial: continuing illnesses; format: in vivo, human
[2] = system: subjects with d-IBS; assay: Adequate relief of IBS symptoms and bloating (weekly yes/no questions), rifaximin BID study in d-IBS; format: in vivo, human; conditions: for Percentage of Subjects with Number of Weeks with Adequate Relief of Bloating Symptoms / Percentage of Subjects with Number of Weeks with Adequate Relief of IBS Symptoms: ITT; for Adequate Relief of Bloating: Success / Adequate Relief of IBS symptoms: Success: end of the Treatment Phase; for Percentage of Subjects with Adequate Relief of Bloating Symptom / Percentage of Subjects with Adequate Relief of IBS Symptoms: RFX 550 mg BID 14 days, ITT N = 191; for Percentage of Subjects with Adequate Relief of Bloating Symptom: at least two of the final three weeks of treatment phase; for Percentage of Subjects with Adequate Relief of IBS Symptoms: at least two of the final three weeks of treatment phase (Weeks 1 to 4); for Adequate Relief of Bloating, Post Treatment: Failures / Adequate Relief of Bloating, Post Treatment: Success / Adequate Relief of Bloating, Post Treatment: Failure: RFX 550 2w (N = 54); for Patients with adequate relief of bloating / Patients with adequate relief of global IBS symptoms: rifaximin 550 mg twice daily 14 days
Experimental: This example relates to a study of rifaximin in subjects with d-IBS. […] There were two measures of efficacy assessed. Subjects were questioned on the relief of overall IBS symptoms and bloating. […] The analyses defined success as a “yes” response to questions regarding adequate relief.
All subpopulations in the study responded to therapy. Baseline severity was determined using 7-point Lickert scales during screening for Abdominal Pain/Discomfort and Bloating, and the number, type (normal, hard, loose) and urgency of bowel movements.
Duration of effect was assessed in a follow-up period. Subjects that responded in the 4 week treatment period were followed for an additional 3 months.
The effect of treatment on the percentage of subjects who reported adequate relief of IBS and bloating symptoms for at least two of the final three weeks during the treatment phase (Weeks 1 to 4) is shown in Tables 5-7 and FIGS. 4-6 below.
The study assessed the effect over 12 weeks of follow-up on long-term adequate relief. Subjects who had adequate relief by Week 4 and remained symptom-free at Week 5 were followed during the post-treatment phase and shown in FIGS. 1 and 2. Superiority to placebo was maintained during the 12 weeks post-treatment follow-up. Results for IBS symptoms were RFX 550 mg BID 62.3% versus placebo 49.2%, and RFX 550 mg BID 59.3% versus 50.9% for placebo for the symptom of bloating through week 16. In assessing the follow-up data, there was statistical significance (p<0.05) of bloating and IBS symptoms for RFX 550 mg BID versus placebo.
Two measures of efficacy were assessed independently. The first was the proportion of subjects who provided a ‘yes’ response to the weekly SGA question: “In the past 7 days, have you had adequate relief of your IBS symptoms? (yes/no)”. The second endpoint was the proportion of subjects who provide a ‘yes’ response to the weekly individual symptom question: “In the past 7 days, have you had adequate relief of your symptom of bloating? (yes/no)”. Durability was based on the proportion of subjects that had adequate relief over the entire treatment phase.
It is reported herein that the severity of baseline symptoms of abdominal pain and bloating influenced the response to rifaximin treatment. The co-primary endpoints in this analysis assessed weekly yes/no responses to questions regarding adequate relief of global IBS symptoms and IBS-associated bloating. Severity of baseline IBS symptoms was evaluated as a potential confounder of clinical response and was categorized as mild/moderate or severe based on a mean score of ≦4 vs. >4 (on a 7-point scale) for bloating and abdominal pain.
The Weekly yes/no responses to questions regarding adequate relief of global IBS symptoms and IBS-associated bloating were assessed. Clinical response was defined as adequate relief for 2 of the final 3 treatment weeks (wk 2, 3, or 4). Severity of baseline IBS symptoms was evaluated as a potential confounder of clinical response and was categorized as mild/moderate or severe based on a mean score of ≦4 versus >4 (on a 7-point scale (0=not bothersome; 6=very bothersome)) for bloating and abdominal pain.

[3] = Rifaximin N = 117, Vancomycin N = 115
[4] = patients with mild/moderate abdominal pain at baseline
[5] = patients with mild/moderate bloating at baseline

## CO[C@H]1/C=C/O[C@@]2(C)Oc3c(C)c(O)c4c(O)c(c5c(nc6cc(C)ccn65)c4c3C2=O)NC(=O)/C(C)=C\C=C\[C@H](C)[C@H](O)[C@@H](C)[C@@H](O)[C@@H](C)[C@H](OC(C)=O)[C@@H]1C [Rifaximin, (2S,16Z,18E,20S,21S,22R, 23R,24R,25S,26S,27S,28E)-5,6,21,23,25 Pentahydroxy-27-methoxy-2,4,11,16,20,22,24,26-octamethyl-2,7-(epoxypentadeca-(1,11,13)trienimino) benzofuro (4,5-e) pyrido(1,2,-a) benzimidazole-1,15(2H)-dione,25-acetate]
[1]; [3]
  Continuing Illness: No, number of subjects: 90
  Continuing Illness: No, percent of subjects: (77%)
  Continuing Illness: Yes, number of subjects: 27
  Continuing Illness: Yes, percent of subjects: (23%)
[1]; Rifaximin vs Vancomycin
  Continuing Illness: Treatment Difference: −9.2%
[2]; 0 weeks, RFX 550 mg BID
  Percentage of Subjects with Number of Weeks with Adequate Relief of Bloating Symptoms: 35%
  Percentage of Subjects with Number of Weeks with Adequate Relief of IBS Symptoms: 33%
[2]; 1 week, RFX 550 mg BID
  Percentage of Subjects with Number of Weeks with Adequate Relief of Bloating Symptoms: 14%
  Percentage of Subjects with Number of Weeks with Adequate Relief of IBS Symptoms: 11%
[2]; 2 weeks, RFX 550 mg BID
  Percentage of Subjects with Number of Weeks with Adequate Relief of Bloating Symptoms: 15%
  Percentage of Subjects with Number of Weeks with Adequate Relief of IBS Symptoms: 15%
[2]; 3 weeks, RFX 550 mg BID
  Percentage of Subjects with Number of Weeks with Adequate Relief of Bloating Symptoms: 20%
  Percentage of Subjects with Number of Weeks with Adequate Relief of IBS Symptoms: 23%
[2]; 4 weeks, RFX 550 mg BID
  Percentage of Subjects with Number of Weeks with Adequate Relief of Bloating Symptoms: 14%
  Percentage of Subjects with Number of Weeks with Adequate Relief of IBS Symptoms: 16%
[2]; Age <65
  Treatment effect, Bloating: 6.8%
  Treatment effect, IBS Sx: 6.9%
[2]; Age ≧65
  Treatment effect, Bloating: 3.2%
  Treatment effect, IBS Sx: 19.1%
[2]; Diabetes History N
  Treatment effect, Bloating: 7.4%
  Treatment effect, IBS Sx: 9.5%
[2]; Diabetes History Y
  Treatment effect, Bloating: −5.6%
  Treatment effect, IBS Sx: −12.7%
[2]; Disease Duration 10-20 y
  Treatment effect, Bloating: 11.7%
  Treatment effect, IBS Sx: 20.1%
[2]; Disease Duration >20 y
  Treatment effect, Bloating: 35.1%
  Treatment effect, IBS Sx: 46.6%
[2]; Disease Duration ≦10 y
  Treatment effect, Bloating: 2.8%
  Treatment effect, IBS Sx: 1.8%
[2]; Female, RFX 275 2w
  Adequate Relief of Bloating: Failure: 52 (64.2%)
  Adequate Relief of IBS symptoms: Failure: 46 (56.8%)
  Adequate Relief of Bloating: Success: 29 (35.8%)
  Adequate Relief of IBS symptoms: Success: 35 (43.2%)
[2]; Female, RFX 550 2w
  Adequate Relief of Bloating: Failure: 74 (54.0%)
  Adequate Relief of IBS symptoms: Failure: 66 (48.2%)
  Adequate Relief of Bloating: Success: 63 (46.0%)
  Adequate Relief of IBS symptoms: Success: 71 (51.8%)
[2]; Female, RFX 550 4w
  Adequate Relief of Bloating: Failure: 44 (57.9%)
  Adequate Relief of IBS symptoms: Failure: 42 (55.3%)
  Adequate Relief of Bloating: Success: 32 (42.1%)
  Adequate Relief of IBS symptoms: Success: 34 (44.7%)
[2]; Female, RFX 1100 2w
  Adequate Relief of Bloating: Failure: 45 (61.6%)
  Adequate Relief of IBS symptoms: Failure: 44 (60.3%)
  Adequate Relief of Bloating: Success: 28 (38.4%)
  Adequate Relief of IBS symptoms: Success: 29 (39.7%)
[2]; Gender F
  Treatment effect, Bloating: 3.9%
  Treatment effect, IBS Sx: 3.5%
[2]; Gender M
  Treatment effect, Bloating: 13.6%
  Treatment effect, IBS Sx: 21%
[2]; Male, RFX 275 2w
  Adequate Relief of Bloating: Failure: 8 (57.1%)
  Adequate Relief of IBS symptoms: Failure: 9 (64.3%)
  Adequate Relief of Bloating: Success: 6 (42.9%)
  Adequate Relief of IBS symptoms: Success: 5 (35.7%)
[2]; Male, RFX 550 2w
  Adequate Relief of Bloating: Failure: 29 (53.7%)
  Adequate Relief of IBS symptoms: Failure: 25 (46.3%)
  Adequate Relief of Bloating: Success: 25 (46.3%)
  Adequate Relief of IBS symptoms: Success: 29 (53.7%)
[2]; Male, RFX 550 4w
  Adequate Relief of Bloating: Failure: 16 (72.7%)
  Adequate Relief of IBS symptoms: Failure: 15 (68.2%)
  Adequate Relief of Bloating: Success: 6 (27.3%)
  Adequate Relief of IBS symptoms: Success: 7 (31.8%)
[2]; Male, RFX 1100 2w
  Adequate Relief of Bloating: Failure: 16 (61.5%)
  Adequate Relief of IBS symptoms: Failure: 14 (53.8%)
  Adequate Relief of Bloating: Success: 10 (38.5%)
  Adequate Relief of IBS symptoms: Success: 12 (46.2%)
[2]
  Percentage of Subjects with Adequate Relief of Bloating Symptom: 46%
  Percentage of Subjects with Adequate Relief of IBS Symptoms: 52%
[2]; listed as RFX
  Percentage of Subjects with Adequate Relief of IBS Symptoms: 52.4%
  Percentage of Subjects with Adequate Relief of Bloating Symptom: 46.1%
[2]; Week 6
  Adequate Relief of Bloating, Post Treatment: Failures: (9.3%)
  Adequate Relief of Bloating, Post Treatment: Success: (90.7%)
[2]; Week 7
  Adequate Relief of Bloating, Post Treatment: Failures: (16.7%)
  Adequate Relief of Bloating, Post Treatment: Success: (83.3%)
[2]; Week 8
  Adequate Relief of Bloating, Post Treatment: Failures: (13.0%)
  Adequate Relief of Bloating, Post Treatment: Success: (87.0%)
[2]; Week 9
  Adequate Relief of Bloating, Post Treatment: Failures: (27.8%)
  Adequate Relief of Bloating, Post Treatment: Success: (72.2%)
[2]; Week 10
  Adequate Relief of Bloating, Post Treatment: Failures: (27.8%)
  Adequate Relief of Bloating, Post Treatment: Success: (72.2%)
[2]; Week 11
  Adequate Relief of Bloating, Post Treatment: Failures: (35.2%)
  Adequate Relief of Bloating, Post Treatment: Success: (64.8%)
[2]; Week 12
  Adequate Relief of Bloating, Post Treatment: Failure: (33.3%)
  Adequate Relief of Bloating, Post Treatment: Success: (66.7%)
[2]; Week 13
  Adequate Relief of Bloating, Post Treatment: Failure: (38.9%)
  Adequate Relief of Bloating, Post Treatment: Success: (61.1%)
[2]; Week 14
  Adequate Relief of Bloating, Post Treatment: Failure: (37.0%)
  Adequate Relief of Bloating, Post Treatment: Success: (63.0%)
[2]; Week 15
  Adequate Relief of Bloating, Post Treatment: Failure: (42.6%)
  Adequate Relief of Bloating, Post Treatment: Success: (57.4%)
[2]; Week 16
  Adequate Relief of Bloating, Post Treatment: Failure: (40.7%)
[2]; aIBS
  Treatment effect, IBS Sx: 31.4%*, 31.4%
[2]; dIBS only
  Treatment effect, Bloating: 4.5%
  Treatment effect, IBS Sx: 6.3%
[2]; [4]
  Patients with adequate relief of bloating: 44%
  Patients with adequate relief of global IBS symptoms: 50%
[2]; [5]
  Patients with adequate relief of bloating: 47%
  Patients with adequate relief of global IBS symptoms: 56%
[2]; through week 16, RFX 550 mg BID, subjects with adequate relief by Week 4
  Long-term adequate relief of IBS symptoms, post-treatment follow-up: 62.3%
